In patent publication US6346373B1, “Whole cell assay for cathepsin K activity” (Merck Frosst Canada & Co.,, priority 1999, dated 2002):
“Also recorded” adds a separate entry of the source. Values belong to the compound of their own block, whether it stands above or below them.

Columns and labels:
purified cathepsin K = target: T1, purified cathepsin K (Homo sapiens, UniProt P43235); test: Pure cathepsin K enzyme assay, hydrolysis of Z-Leu-Arg-Rhodamine in buffer A; assay type: biochemical; settings: 15 min preincubation; for IC50: pure cathepsin K in buffer A, 5 μM Z-Leu-Arg-Rhodamine, read-out: IC50 Pure Cat K
T1 construct: Standards (10 ng) of human mature cathepsin K (pure Cat k mature)
T1 sequence (P43235 115-329): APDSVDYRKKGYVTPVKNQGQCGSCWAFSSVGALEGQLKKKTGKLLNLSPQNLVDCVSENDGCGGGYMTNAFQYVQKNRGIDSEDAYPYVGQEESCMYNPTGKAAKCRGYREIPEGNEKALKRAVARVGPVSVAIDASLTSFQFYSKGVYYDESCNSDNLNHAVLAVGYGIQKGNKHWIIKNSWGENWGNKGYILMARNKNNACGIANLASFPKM
Experimental: (§1) The rate of substrate hydrolysis is determined in supernatants from extracts of mock and cathepsin K expressing cells (5 μg/ml of total cell protein in buffer A) and a suspension of pure cathepsin K enzyme (3 nM resuspended in buffer A), in the presence of different concentrations of cystatin. Suspensions are preincubated with cystatin for 15 min, then the reaction is initiated with the addition of the substrate (5 μM Z-Leu-Arg-Rhodamine). Each data point is an average of duplicates and is reported as a percentage of inhibition of the control reaction.
(§2) The enzymatic activity of purified cathepsin K (3 nM) and transfectants' supernatants (5 μg/ml of protein) is determined by following the rate of hydrolysis of different peptide substrates conjugated to either AMC or rhodamine.
Assays are performed at room temperature in 200 μl of buffer A [50 mM MES (2-(N-morpholino)ethanesulfonic acid) buffer, pH 5.5, containing 2.5 mM EDTA, 2.5 mM dithiothreitol, 10% DMSO]. Substrate hydrolysis is monitored over a period of 10 min at room temperature in a Cytofluor 4000 fluorescent plate reader (Perseptive Biosystems, MA, USA). Cathepsin K activity measurements are calculated as initial rates over the first 5 min of the reaction.
(§3) Stable mock or hCat K expressing cells are resuspended in HBSS, pH 7.4 supplemented with 15 mM Hepes, 20 μg/ml cystatin and 100 μg/ml SBTI. Pure cathepsin K enzyme is resuspended in buffer A. Enzyme suspensions are preincubated with the designated inhibitor for 15 min before initiating the reaction with 5 μM of the substrate Z-Leu-Arg-Rhodamine.

[1] = target: T2, intracellular cathepsin K in hCat K expressing CHO cells (Homo sapiens, UniProt P43235); test: Whole cell assay for cathepsin K in hCat K expressing CHO cells in presence of cystatin and SBTI; assay type: cell-based; settings: hCat K expressing cells in HBSS pH 7.4, 15 mM Hepes, 20 μg/ml cystatin, 100 μg/ml SBTI; 15 min preincubation, 5 μM Z-Leu-Arg-Rhodamine
T2 construct: expressed in transfected cells
T2 sequence (P43235 115-329): T1 sequence (P43235 115-329)
Experimental: Unless otherwise indicated, cathepsin K activity in intact cells is conducted by challenging the cells with 5 μM of the substrate [Z-Leu-Arg]2-rhodamine in the presence of cystatin and SBTI. Using sterile 96-wells culture plates (Nunc, DK, Denmark), 50,000 mock or Cat K expressing stable cell lines are dispensed into each well and incubated for 24 h. Using the Skanwasher 300 plate washer (Skatron, VA, USA) the cells are washed twice with PBS containing Ca^2+ and Mg^2+. Then, pre-incubated for 15 min at room temperature in 200 μl HBSS (Hank's buffered saline solution), pH 7.4, supplemented with 15 mM Hepes, 20 μg/ml cystatin (Calbiochem, CA, USA) and 100 μg/ml soybean trypsin inhibitor (Sigma, ON, Canada). The pre-incubated cells are then challenged with the addition of 2 μl of [Z-Leu-Arg]2-rhodamine (500 μM stock solution in DMSO to a final 5 μM concentration). Substrate hydrolysis is monitored at room temperature in a Cytofluor 4000 fluorescent plate reader (Perseptive Biosystems, MA, USA).
as §3

bone resorption = settings: Delaisse et al., 1987; cited from earlier work
[2] = target: T3, intracellular cathepsin K in hCat K cells (Homo sapiens, UniProt P43235); test: Flow cytometry (FACS) analysis of hCat K CHO cells with [Z-Leu-Arg]2-rhodamine; assay type: cell-based; settings: 5 μM Z-Leu-Arg-Rho, cystatin and SBTI present (FIG. 8C)
T3 construct: expressed in transfected cells
T3 sequence (P43235 115-329): T1 sequence (P43235 115-329)
Experimental: FIGS. 8A-8C show the results of the flow cytometry analysis of mock and hCat K expressing CHO cells. Pelleted cells are resuspended in Ca^2+ and Mg^2+ free PBS containing 20 μg/ml cystatin and 100 μg/ml SBTI. After a preincubation of 15 min at […], the substrate, 5 μM Z-Leu-Arg-rhodamine is added. Flow cytometry analysis is performed after a 15 min incubation at 37° C. with the substrate.
Stable mock or hCat K cell lines are trypsinized and resuspended at a density of 1 million cells/ml in Ca^2+ and Mg^2+ free PBS, 20 μg/ml cystatin and 100 μg/ml soybean trypsin inhibitor. Cells are preincubated for 15 min at 37° C. in the presence of vehicle or an inhibitor followed by the addition of the substrate, [Z-Leu-Arg]2-rhodamine (5 μM). Flow cytometry analysis is performed using a FACSCalibur system (Becton Dickinson, CA, USA) equipped with a CellQuest software. Voltage and fluorescence compensation adjustments are performed before each experiment using CaliBRITE beads (Becton Dickinson, CA, USA) and the FACSComp software (Becton Dickinson, CA, USA). A minimum of 10,000 events is collected for each sample. Cells are gated to exclude cell debris and abnormally large or aggregated cells.

[3] = target: T4, recombinant cathepsin K expressed by the CHO tranfectants (hCat K extract) (Homo sapiens, UniProt P43235); test: Enzyme assay in hCat K CHO cell extract supernatant, hydrolysis of Z-Leu-Arg-rhodamine; assay type: biochemical; settings: 5 μg/ml total cell protein in buffer A, 15 min preincubation, 5 μM substrate (FIG. 4)
T4 construct: expressed in transfected cells
T4 sequence (P43235 115-329): T1 sequence (P43235 115-329)
Experimental: as §1
Cultured tranfectants are pelleted, resuspended in PBS and sonicated for 3×10 s using a Kontes Ultrasonic Disrupter. […] Protein concentrations are determined on all the supernatants using the Pierce Coomassie Protein Reagent (Pierce, Ill. USA) as described in the manufacturer's instruction.
as §2
Assays are performed at room temperature in 200 μl of buffer A [50 mM MES (2-(N-morpholino)ethanesulfonic acid) buffer, pH 5.5, containing 2.5 mM EDTA, 2.5 mM dithiothreitol, 10% DMSO]. […] Cathepsin K activity measurements are calculated as initial rates over the first 5 min of the reaction. […]

[4] = system: extracellular protease activity of whole hCat K cells; test: Effect of cell-impermeable protease inhibitors on Z-Leu-Arg-Rhodamine hydrolysis by whole hCat K cells (FIG. 5); assay type: cell-based; settings: cystatin 20 μg/ml, EDTA 1 mM, SBTI 100 μg/ml, pepstatin A 0.7 μg/ml; 5 μM Z-Leu-Arg-Rhodamine (FIG. 5)
Experimental: Cells are seeded in sterile 96-wells cell culture plates, grown for 24 h and then washed twice with PBS. Into each well, HBSS pH 7.4 containing 15 mM Hepes is added. The rate of substrate hydrolysis is determined in the presence of the designated protease inhibitors. Cells are preincubated with an inhibitor for 15 min, then the reaction initiated with the addition of the substrate, 5 μM Z-Leu-Arg-Rhodamine. […] The reported enzymatic activities constitute the initial rate of substrate hydrolysis and each data point is an average of duplicates.
To determine the effect of different inhibitors on cathepsin K activity, mock and hCat K whole cells are preincubated with 1 μl of vehicle (control) or an inhibitor for 15 min at room temperature followed by the addition of the substrate. All inhibitors are prepared as stock solutions in DMSO (dimethylsulfoxide) and assays performed with a final DMSO concentration of 1.5%.
Mock and hCat K cells are plated into 96 well tissue culture plates as described in materials and methods and the activity is determined using the Z-Leu-Arg-rhodamine substrate. […]

[5] = Cell permeability tested in CACO-2 cells; assay type: in vitro ADME; settings: unpublished results
[6] = target: human mature cathepsin K (purified enzyme) (human) (UniProt P43235); test: cell-based or functional assay
[7] = target: recombinant human cathepsin K expressed in CHO cells stably transfected with pcDNA3.1/hCat K (human) (UniProt P43235); test: cell-based or functional assay

Compound: cystatin [listing 1 of 2 here]
IC50 on hydrolysis of Z-Leu-Arg-rhodamine by purified cathepsin K (purified cathepsin K; 3 nM pure enzyme in buffer A, 5 μM substrate (FIG. 4)): 0.2 µg/mL
IC50 on hydrolysis of Z-Leu-Arg-rhodamine by hCat K extract [3]: 0.09 µg/mL
Effect on protease activity in whole hCat K cells [4]: decrease in protease activity; also recorded: effective inhibitor of extracellular cathepsin K activity
Cell permeability [5]: does not permeate into cells

Compound: cystatin [listing 2 of 2 here]
IC50, inhibition of the rate of hydrolysis of Z-Leu-Arg-rhodamine [6]: 0.2 µg/mL
IC50, inhibition of the rate of hydrolysis of Z-Leu-Arg-rhodamine [7]: 0.09 µg/mL

More lines, main results first:

IC50 (purified cathepsin K): 0.03 µM
IC50 [1]: 0.576 µM
Compound: CC(C)C[C@H](NC(=O)C1OC1C(=O)O)C(=O)NCCCCNC(=N)N (stereo partly drawn) [Inhibitor E64, trans-epoxysuccinyl-L-leucylamide-(4-guanidino) butane]
Inhibition of bone resorption (bone resorption): effective in inhibiting bone resorption

IC50 (purified cathepsin K): 0.041 µM
IC50 [1]: 0.307 µM
Compound: CC(C)CCNC(=O)[C@H](CC(C)C)NC(=O)[C@H]1O[C@@H]1C(=O)O [Inhibitor E64c]

Effect on increase in fluorescence in hCat K cells [2]: inhibited; also recorded: repressed
Compound: CCOC(=O)[C@H]1O[C@@H]1C(=O)N[C@@H](CC(C)C)C(=O)NCCC(C)C [Inhibitor E64d]
